The test system of the experiment is epidermal gene expression (GeneTitan U219 probes). As to the kind of experiment: Genomic evaluation of LCM-derived epidermal samples before vs. after surfactant (SLS) challenge, leg controlled application test. In kind it is in vivo, human. To be noted: for Significant Beyond Chance / Number of Probes (significantly different): summer, after 5 day 1% SLS treatment vs. baseline; for Number of Probes (significantly different): p<0.05, approximately 2465 probes expected by chance. The procedure:
25 ng of purified RNA is converted to biotin-labeled cRNA copies using the Affymetrix HT 3′ IVT Express kit (Cat. #901253) and protocol provided as executed on a Beckman Biomek® FX^p Laboratory Automation Workstation (Beckman Cat. #A31842), or equivalent. In brief, 500 ng of total RNA is reverse-transcribed into cDNA copies using oligo-dT primers and reverse transcriptase followed by second strand synthesis using DNA polymerase I. Following purification, the cDNA library is used as a template for generating biotin-labeled cRNA copies using T7 RNA polymerase and biotinylated dUTP. Biotinylated cRNA is fragmented by limited alkaline hydrolysis and then hybridized overnight to Affymetrix GeneTitan® U219 array plates using the Affymetrix GeneTitan® instrument and protocol provided. Following processing, chip images are converted to numeric data using the PLIER algorithm as executed in the Affymetrix GeneChip Expression Console.
A clinical study was conducted to conduct a genomic evaluation of subjects with inherently dry skin versus subjects with inherently normal moisturized skin in the winter season (phase 1) and summer season (phase 2. The clinical study design for each phase was a leg controlled application test (LCAT) protocol. The phase 2 portion of the test also included a determination of genomic differences between subjects that are treated with a drying agent (“surfactant challenged”).
Phase 2 clinical design: human subjects from phase 1 were recalled during the summer season (i.e., June-August) and maintained in their respective cohort groups. A cohort of 29 subjects was recalled for the inherently dry skin group, while a cohort of 12 subjects was recalled for the inherently normal moisturized skin group. All subjects were pre-conditioned with Olay® soap bar for 7 days (days −7 to −1) followed by a 2 day regression. Subjects were instructed to abstain from washing their legs with any products and from using any leave-on products on their legs during the pretreatment period. Dry Skin Grade measurements, full thickness biopsies, and other skin health measurements (e.g., TEWL) were taken on day 1. Subjects with a dry skin score of greater than 4.0 were excluded from biopsies. The full thickness biopsies were later separated into epidermal and dermal sections via LCM, and the epidermal section was used for genomic analysis.
On days 3-7 (5 consecutive days) subjects who have a Dryness Grade less than 3.0 on one or both legs continue on the study, all other subjects were excused from the study. The clinical staff conducted visual grading at a site adjacent to the biopsy site, followed by a surfactant challenge (i.e., treating the site with 1% sodium lauryl sulfate (“SLS”) solution and occluding the site with a Hill Top Chamber® brand occlusive patch test system for 30 minutes). Each day the dryness was visually graded prior to the SLS treatment. On day 8 (24 hrs. following Day 7), bio-instruments measures were taken, but biomarkers and biopsies were only taken if the surfactant challenged site has a Dryness Grade below 4.0.
Results: 237 LCM-derived epidermal samples were processed on GeneTitan® U219 chips as described above. Of these, 11 were statistical outliers that were eliminated from the data set. For purposes of statistical treatment, the left and right leg samples from each subject, at each phase of the study, were considered replicates. An ANOVA model was used to determine group differences.

Setting [1] is: P2 D5 Dry vs. P2 BL Dry: inherently dry skin.
Setting [2] is: P2 D5 Healthy vs. P2 BL Healthy: inherently normal moisturized skin.

This note sets out measurements from US11035851B2, “Method of identifying cosmetic agents for moisturizing skin” (The Procter & Gamble Company, priority 2016, dated 2021).

With `CCCCCCCCCCCCOS(=O)(=O)[O-].[Na+]` [SLS, sodium lauryl sulfate], the “Significant Beyond Chance” value under setting [1] is “Yes” and the “Significant Beyond Chance” value under setting [2] is recorded as “Yes”. Also, the “Number of Probes (significantly different)” value came to 10696 under setting [1] and 6110 under setting [2]. Also, the “Difference in probe expression, paired (within-group) comparison before vs. after SLS treatment” value (within dry skin or normal/healthy skin groups, summer phase) is reported as “significant differences”.
